Test [1] addresses T1, Mixed lineage kinase domain-like protein (Homo sapiens) (UniProt Q8NB16).
T1 sequence (whole entry): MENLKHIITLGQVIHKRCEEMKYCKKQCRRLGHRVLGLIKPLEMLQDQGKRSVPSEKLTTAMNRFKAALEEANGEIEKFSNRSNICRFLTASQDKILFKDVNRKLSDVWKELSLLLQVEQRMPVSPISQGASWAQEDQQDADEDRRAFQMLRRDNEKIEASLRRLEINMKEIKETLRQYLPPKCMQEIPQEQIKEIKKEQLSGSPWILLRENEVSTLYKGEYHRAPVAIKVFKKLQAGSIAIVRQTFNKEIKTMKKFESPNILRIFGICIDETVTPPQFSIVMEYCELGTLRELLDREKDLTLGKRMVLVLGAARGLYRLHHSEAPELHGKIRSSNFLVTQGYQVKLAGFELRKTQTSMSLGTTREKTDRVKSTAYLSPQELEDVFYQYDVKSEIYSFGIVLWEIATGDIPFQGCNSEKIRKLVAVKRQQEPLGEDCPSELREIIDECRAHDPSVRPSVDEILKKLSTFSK
In words: Selectivity interaction (Kinase panel (KiNativ target engagement assay in Jurkat cells)) EUB0001635a MLKL. It counts as cell-based. The settings on record: at 1 µM.

Test [2] deals with Tyrosine-protein kinase ABL1 (Homo sapiens, UniProt P00519). In words: Selectivity interaction (Kinase panel (KiNativ target engagement assay in Jurkat cells)) EUB0001635a ABL1. It counts as cell-based. To be noted: Selectivity number of off-targets 0.0, Selectivity number of targets 233.0, Source Knowledge https://www.sciencedirect.com/science/article/pii/S2451945619300674?via%3Dihub, at 1 µM.
Tyrosine-protein kinase ABL1, sequence (P00519 whole entry): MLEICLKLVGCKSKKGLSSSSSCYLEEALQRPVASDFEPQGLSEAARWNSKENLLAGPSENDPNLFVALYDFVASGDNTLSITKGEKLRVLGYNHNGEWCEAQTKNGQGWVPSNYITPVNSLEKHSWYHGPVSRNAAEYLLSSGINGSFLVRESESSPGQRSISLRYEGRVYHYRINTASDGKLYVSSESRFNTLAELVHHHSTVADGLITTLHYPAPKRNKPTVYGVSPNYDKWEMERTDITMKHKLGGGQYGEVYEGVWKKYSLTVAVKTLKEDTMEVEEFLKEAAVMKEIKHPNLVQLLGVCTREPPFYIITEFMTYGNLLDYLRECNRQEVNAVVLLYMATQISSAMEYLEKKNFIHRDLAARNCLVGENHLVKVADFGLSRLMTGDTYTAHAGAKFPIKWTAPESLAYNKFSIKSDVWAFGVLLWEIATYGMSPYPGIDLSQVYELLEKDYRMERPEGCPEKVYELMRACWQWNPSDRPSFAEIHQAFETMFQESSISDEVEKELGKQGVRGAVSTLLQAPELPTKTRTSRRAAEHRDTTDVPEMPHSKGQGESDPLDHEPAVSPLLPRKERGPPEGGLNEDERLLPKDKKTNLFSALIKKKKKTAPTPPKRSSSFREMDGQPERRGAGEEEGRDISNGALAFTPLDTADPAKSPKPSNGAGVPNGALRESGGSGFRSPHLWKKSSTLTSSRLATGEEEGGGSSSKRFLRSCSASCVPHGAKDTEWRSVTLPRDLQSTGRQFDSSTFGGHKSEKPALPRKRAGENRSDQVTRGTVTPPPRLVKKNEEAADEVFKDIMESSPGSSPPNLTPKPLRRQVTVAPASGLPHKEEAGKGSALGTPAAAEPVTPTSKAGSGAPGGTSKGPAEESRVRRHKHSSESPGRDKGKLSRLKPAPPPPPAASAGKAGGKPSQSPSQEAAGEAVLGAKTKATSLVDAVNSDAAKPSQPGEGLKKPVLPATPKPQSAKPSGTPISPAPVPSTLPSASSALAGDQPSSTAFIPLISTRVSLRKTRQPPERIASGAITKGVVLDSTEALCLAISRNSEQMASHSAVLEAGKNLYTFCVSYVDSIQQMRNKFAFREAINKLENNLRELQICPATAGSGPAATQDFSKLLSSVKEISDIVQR

Test [3] has as its target T2, Serine/threonine-protein kinase MAK (Homo sapiens) (UniProt P20794).
T2 sequence (whole entry): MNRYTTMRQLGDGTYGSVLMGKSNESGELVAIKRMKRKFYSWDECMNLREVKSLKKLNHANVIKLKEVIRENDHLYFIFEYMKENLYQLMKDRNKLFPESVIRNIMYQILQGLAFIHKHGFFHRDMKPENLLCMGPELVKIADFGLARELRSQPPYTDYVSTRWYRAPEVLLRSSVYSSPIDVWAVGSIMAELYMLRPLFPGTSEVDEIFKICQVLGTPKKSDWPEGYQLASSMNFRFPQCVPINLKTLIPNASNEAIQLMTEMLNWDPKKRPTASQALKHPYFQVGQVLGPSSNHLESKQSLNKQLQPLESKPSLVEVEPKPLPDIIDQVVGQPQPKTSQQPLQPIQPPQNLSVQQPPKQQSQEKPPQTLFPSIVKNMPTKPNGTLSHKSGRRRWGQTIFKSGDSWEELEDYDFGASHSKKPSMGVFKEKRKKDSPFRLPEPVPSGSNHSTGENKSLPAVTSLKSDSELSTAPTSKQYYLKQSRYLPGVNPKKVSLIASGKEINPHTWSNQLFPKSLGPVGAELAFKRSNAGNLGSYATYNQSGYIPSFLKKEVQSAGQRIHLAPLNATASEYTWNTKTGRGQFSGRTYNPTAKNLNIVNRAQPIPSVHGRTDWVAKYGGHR
In words: Selectivity interaction (KinomeScan (DiscoverX)) EUB0000607a MAK. The settings on record: at 10 µM.

The target in test [4] is Casein kinase II subunit alpha' (Homo sapiens) (UniProt P19784). Put plainly: Selectivity interaction (KinomeScan (DiscoverX)) EUB0000229b CSNK2A2. The settings on record: at 10 µM.
Casein kinase II subunit alpha' (Homo sapiens), sequence (P19784 whole entry, looked up): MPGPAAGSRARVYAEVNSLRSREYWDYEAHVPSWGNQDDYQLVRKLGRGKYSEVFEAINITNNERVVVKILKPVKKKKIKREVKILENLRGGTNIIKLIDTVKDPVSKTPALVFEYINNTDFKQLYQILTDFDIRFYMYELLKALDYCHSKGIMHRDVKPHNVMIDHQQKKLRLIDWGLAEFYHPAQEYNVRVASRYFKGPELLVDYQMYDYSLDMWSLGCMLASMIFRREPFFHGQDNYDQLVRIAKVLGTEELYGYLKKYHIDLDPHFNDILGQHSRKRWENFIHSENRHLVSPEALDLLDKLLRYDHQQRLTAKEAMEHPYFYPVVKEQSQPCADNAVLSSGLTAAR
The target in test [5] is Dual specificity tyrosine-phosphorylation-regulated kinase 1B (Homo sapiens, UniProt Q9Y463). Put plainly: Selectivity interaction (KinomeScan (DiscoverX)) EUB0001079a DYRK1B. To be noted: at 1 µM.
Dual specificity tyrosine-phosphorylation-regulated kinase 1B, sequence (Q9Y463 whole entry, looked up): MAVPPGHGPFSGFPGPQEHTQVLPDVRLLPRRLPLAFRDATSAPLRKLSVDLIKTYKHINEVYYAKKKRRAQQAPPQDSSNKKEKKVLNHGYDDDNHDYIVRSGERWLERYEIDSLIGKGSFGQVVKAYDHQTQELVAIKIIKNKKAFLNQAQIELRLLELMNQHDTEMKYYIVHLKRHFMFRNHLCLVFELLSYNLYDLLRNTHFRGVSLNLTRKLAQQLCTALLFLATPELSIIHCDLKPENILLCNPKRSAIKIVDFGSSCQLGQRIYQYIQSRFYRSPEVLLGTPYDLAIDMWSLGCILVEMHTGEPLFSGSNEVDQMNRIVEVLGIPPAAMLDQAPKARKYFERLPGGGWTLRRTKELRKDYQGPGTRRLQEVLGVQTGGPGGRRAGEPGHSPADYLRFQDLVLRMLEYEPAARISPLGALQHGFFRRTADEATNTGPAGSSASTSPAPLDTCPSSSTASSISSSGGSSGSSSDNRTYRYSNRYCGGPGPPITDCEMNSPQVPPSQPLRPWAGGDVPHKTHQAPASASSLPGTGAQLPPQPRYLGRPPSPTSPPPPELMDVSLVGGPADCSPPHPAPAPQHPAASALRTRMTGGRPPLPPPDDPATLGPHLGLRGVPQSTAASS
The target in test [6] is Calcium/calmodulin-dependent protein kinase type 1 (Homo sapiens) (UniProt Q14012). Put plainly: Selectivity interaction (ActivX KiNativ screen (ex vivo kinase selectivity in human PBMCs)) EUB0001619a CAMK1. The settings on record: PBMC, at 1 µM. It counts as cell-based.
Calcium/calmodulin-dependent protein kinase type 1 (Homo sapiens), sequence (Q14012 whole entry, looked up): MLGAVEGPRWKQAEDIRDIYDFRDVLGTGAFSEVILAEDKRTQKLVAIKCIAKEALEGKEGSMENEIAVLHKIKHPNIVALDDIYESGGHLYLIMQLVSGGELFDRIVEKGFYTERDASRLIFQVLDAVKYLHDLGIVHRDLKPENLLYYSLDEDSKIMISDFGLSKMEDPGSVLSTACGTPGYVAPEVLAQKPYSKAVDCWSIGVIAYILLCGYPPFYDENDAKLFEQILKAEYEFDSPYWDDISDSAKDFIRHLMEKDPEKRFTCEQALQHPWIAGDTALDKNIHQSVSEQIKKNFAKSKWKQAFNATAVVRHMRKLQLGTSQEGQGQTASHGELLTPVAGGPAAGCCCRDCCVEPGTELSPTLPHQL
In test [7] the target is Serine/threonine-protein kinase 26 (Homo sapiens, UniProt Q9P289). To be noted: PBMC, at 1 µM.
Serine/threonine-protein kinase 26, sequence (Q9P289 2-416 limits assumed): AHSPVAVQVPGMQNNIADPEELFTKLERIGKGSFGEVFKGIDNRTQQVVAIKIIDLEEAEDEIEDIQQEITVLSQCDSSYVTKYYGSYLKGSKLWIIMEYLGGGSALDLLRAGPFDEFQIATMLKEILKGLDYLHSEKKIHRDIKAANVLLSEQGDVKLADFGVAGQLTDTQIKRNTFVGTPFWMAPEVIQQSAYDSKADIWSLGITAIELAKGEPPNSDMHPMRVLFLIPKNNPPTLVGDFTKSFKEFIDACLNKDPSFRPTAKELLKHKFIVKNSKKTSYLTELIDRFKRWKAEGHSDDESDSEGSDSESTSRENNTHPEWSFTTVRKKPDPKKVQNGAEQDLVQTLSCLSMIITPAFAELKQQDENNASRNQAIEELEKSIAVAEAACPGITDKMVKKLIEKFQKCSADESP
Test [8] has as its target T3, Phosphatidylinositol 4,5-bisphosphate 3-kinase catalytic subunit delta isoform (Homo sapiens) (UniProt O00329).
T3 sequence (whole entry): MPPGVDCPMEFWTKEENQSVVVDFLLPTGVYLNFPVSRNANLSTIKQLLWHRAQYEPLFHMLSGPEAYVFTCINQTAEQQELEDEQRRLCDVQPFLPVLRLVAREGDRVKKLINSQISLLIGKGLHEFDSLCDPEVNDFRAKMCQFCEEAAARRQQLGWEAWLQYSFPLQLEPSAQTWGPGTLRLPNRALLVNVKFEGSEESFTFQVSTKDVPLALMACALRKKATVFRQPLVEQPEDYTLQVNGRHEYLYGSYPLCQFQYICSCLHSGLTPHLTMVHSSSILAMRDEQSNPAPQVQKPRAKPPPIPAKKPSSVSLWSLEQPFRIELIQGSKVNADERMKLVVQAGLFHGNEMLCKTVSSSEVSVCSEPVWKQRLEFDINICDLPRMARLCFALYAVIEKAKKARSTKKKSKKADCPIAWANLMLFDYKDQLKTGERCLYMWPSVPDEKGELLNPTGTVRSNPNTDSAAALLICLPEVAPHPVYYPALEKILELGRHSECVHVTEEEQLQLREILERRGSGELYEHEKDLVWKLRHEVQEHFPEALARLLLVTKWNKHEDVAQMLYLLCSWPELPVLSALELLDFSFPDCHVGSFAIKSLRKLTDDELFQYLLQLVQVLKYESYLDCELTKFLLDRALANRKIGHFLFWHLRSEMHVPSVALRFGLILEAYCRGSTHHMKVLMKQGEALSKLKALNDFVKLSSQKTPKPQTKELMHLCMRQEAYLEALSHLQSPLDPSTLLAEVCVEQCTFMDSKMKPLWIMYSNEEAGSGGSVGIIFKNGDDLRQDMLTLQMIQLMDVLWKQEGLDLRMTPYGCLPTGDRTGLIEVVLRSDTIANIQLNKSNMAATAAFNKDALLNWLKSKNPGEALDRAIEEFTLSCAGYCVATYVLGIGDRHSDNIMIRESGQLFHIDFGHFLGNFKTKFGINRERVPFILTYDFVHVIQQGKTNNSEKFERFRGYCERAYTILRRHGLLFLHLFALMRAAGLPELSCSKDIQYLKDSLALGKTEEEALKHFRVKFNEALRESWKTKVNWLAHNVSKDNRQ
In words: Selectivity interaction (ActivX KiNativ screen (ex vivo kinase selectivity in human PBMCs)) EUB0001619a PIK3CD. It is filed as cell-based. The settings on record: PBMC, at 1 µM.

The target in test [9] is Tyrosine-protein kinase JAK2 (Homo sapiens, UniProt O60674). In words: Selectivity interaction (KinomeScan (DiscoverX)) EUB0000045b JAK2.
Tyrosine-protein kinase JAK2, sequence (O60674 whole entry): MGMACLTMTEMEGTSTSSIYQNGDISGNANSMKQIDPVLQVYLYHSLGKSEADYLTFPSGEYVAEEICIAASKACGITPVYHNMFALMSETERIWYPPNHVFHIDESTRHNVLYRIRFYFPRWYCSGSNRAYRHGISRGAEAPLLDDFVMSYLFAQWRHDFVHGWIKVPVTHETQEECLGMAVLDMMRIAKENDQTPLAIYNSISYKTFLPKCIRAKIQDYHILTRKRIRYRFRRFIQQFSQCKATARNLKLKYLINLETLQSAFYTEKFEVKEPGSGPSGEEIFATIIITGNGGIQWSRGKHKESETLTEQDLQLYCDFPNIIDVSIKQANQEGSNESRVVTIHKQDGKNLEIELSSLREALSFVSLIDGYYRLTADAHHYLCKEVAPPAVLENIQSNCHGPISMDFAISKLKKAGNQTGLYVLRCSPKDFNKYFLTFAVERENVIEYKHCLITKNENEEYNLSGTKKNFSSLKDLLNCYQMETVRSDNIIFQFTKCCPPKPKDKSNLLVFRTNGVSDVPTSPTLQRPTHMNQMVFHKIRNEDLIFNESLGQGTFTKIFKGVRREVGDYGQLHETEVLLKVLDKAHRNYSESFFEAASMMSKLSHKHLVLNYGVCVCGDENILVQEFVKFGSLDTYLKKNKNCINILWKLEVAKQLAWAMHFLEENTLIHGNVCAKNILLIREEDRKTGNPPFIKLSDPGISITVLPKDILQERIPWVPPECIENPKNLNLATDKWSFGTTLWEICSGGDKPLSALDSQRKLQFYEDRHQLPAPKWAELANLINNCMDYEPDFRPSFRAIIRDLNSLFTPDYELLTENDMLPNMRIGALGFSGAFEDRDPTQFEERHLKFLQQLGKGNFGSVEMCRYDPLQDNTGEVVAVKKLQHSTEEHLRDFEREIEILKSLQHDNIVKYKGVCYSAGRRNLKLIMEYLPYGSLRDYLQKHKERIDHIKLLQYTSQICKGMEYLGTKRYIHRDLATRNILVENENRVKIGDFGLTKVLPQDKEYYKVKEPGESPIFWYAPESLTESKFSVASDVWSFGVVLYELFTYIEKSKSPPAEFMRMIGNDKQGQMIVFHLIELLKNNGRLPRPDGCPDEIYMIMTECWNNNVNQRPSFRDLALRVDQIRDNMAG

On to `C=CC(=O)Nc1ccc(C(=O)Nc2[nH]nc3c2CN(C(=O)N[C@H](CN(C)C)c2ccccc2)C3(C)C)cc1`, for which the results for the % of engagement in [1] and in [2] were 5.6% and -12.6%, respectively.
As for `CNC(=O)Nc1ccc(-c2nc(N3CC4CCC(C3)O4)c3cnn(C4CCC5(CC4)OCCO5)c3n2)cc1`, the % of control in [3] was 100%.
`COc1cc(N(C)c2ccnc3ccc(C(F)(F)F)cc23)cc(OC)c1OC` showed a % binding in [4] of 100%.
The compound `Nc1cnc(N2CCc3cc(S(=O)(=O)Nc4c(F)cc(Cl)cc4F)cc(N4CCCC4=O)c32)nc1` [TP-020n] came in with a % of control in test [5] of 100%.
Regarding `N#Cc1cccc(-c2c[nH]c3ncnc(N4CCOCC4)c23)c1`, the % of inhibition in [6] was 2%; in test [7], 61%; in [8] it was -12%.
For the compound `C=CC(=O)Nc1cc(-n2c(=O)ccc3cnc4ccc(-c5ccc(NS(C)(=O)=O)cc5)cc4c32)ccc1C`, the % of control turned out to be 86% in test [9] (at 1 µM) and 100% in test [9] (at 10 µM).

Values taken from ChEMBL document CHEMBL5465560, “Selectivity Literature for EUbOPEN Chemogenomic Library” (2024).
